Where a name gives a salt, the structure may show the parent alone.
How the values were obtained:
A. baumannii APV00473 = test: MIC, broth microdilution; type: cell-based; conditions: Acinetobacter baumannii; A. baumannii APV00473, ciprofloxacin-resistant
Procedure: (§1) MICs were determined by the broth microdilution method (the agar dilution method was used only for N. gonorrhoeae) according to CLSI guidelines.

A. baumannii ATCC 19606 = test: MIC, broth microdilution; type: cell-based; conditions: Acinetobacter baumannii, ATCC19606; A. baumannii ATCC 19606, ciprofloxacin-susceptible
Procedure: as §1

E. coli 4SI = test: MIC, broth microdilution; type: cell-based; conditions: Escherichia coli, ciprofloxacin-resistant
Procedure: as §1

S. pyogenes APV00074 = test: MIC, broth microdilution; type: cell-based; conditions: Streptococcus pyogenes; S. pyogenes APV00074, ciprofloxacin-susceptible
Procedure: as §1

S. pyogenes APV00083 = test: MIC, broth microdilution; type: cell-based; conditions: Streptococcus pyogenes; S. pyogenes APV00083, ciprofloxacin-susceptible
Procedure: as §1

C. difficile ATCC 700057 = test: MIC, broth microdilution; type: cell-based, Clostridium difficile; conditions: Clostridioides difficile, ATCC700057
Procedure: MICs were determined by the broth microdilution method (the agar dilution method was used only for N. gonorrhoeae) according to CLSI guidelines. […] The MIC values of antibiotics used in clinical practice were interpreted according to the susceptibility interpretive criteria reported in the appropriate CLSI Tables (M100-S25, CLSI, 2015).

[1] = tested on: K. pneumoniae AcrAB- mutant; test: microbe, parasite or virus in culture; type: cell-based; conditions: Klebsiella pneumoniae
Procedure: (§2) The bacterial reference strains used in this study were purchased from ATCC (American Type Culture Collection) via LGC Standards (Middlesex, UK). […] Clinical MDR isolates were provided by Aptuit, the IHMA Europa Sàrl repository (Epalinges, Switzerland) and the Statens Serum Institute (Copenhagen, Denmark).
as §1

[2] = tested on: S. aureus clinical isolates (n = 10); test: microbe, parasite or virus in culture; type: cell-based, Staphylococcus aureus; conditions: S. aureus MDR clinical isolates (n = 10)
Procedure: as §2, §1
(§3) The results obtained using clinical isolates are reported as MIC50 and MIC90 values.

[3] = tested on: C. difficile clinical isolates (n = 21); test: MIC, multidrug-resistant clinical isolates; type: cell-based, Clostridium difficile; conditions: Clostridioides difficile, C. difficile clinical isolates (n = 21); for MIC50: read-out: MIC50; for MIC90: read-out: MIC90; for MIC: read-out: MIC range
Procedure: as §2, §1, §3

[4] = tested on: E. coli clinical isolates (n = 36); test: MIC, multidrug-resistant clinical isolates; type: cell-based, Escherichia coli; conditions: Escherichia coli, E. coli MDR clinical isolates (n = 36); for MIC50: read-out: MIC50; for MIC90: read-out: MIC90
Procedure: as §2, §1, §3

[5] = tested on: A. baumannii clinical isolates (n = 10); test: microbe, parasite or virus in culture; type: cell-based, Acinetobacter baumannii
Procedure: as §2, §1, §3

COc1cnc2ncc(=O)n([C@H]3CC[C@H](NCc4cc5c(=O)oc6ccc(F)cc6c5[nH]4)CC3)c2c1 [Compound 5, 8-Fluoro-2-({[trans-4-(7-methoxy-2-oxopyrido[2,3-b]pyrazin-1(2H)-yl)cyclohexyl]amino}methyl)[1]benzopyrano[4,3-b]pyrrol-4(1H)-one hydrochloride]
MIC (A. baumannii APV00473): 0.5 µg/mL | MIC (A. baumannii ATCC 19606): 1 µg/mL | MIC (E. coli 4SI): 0.5 µg/mL | MIC (S. pyogenes APV00074): 0.12 µg/mL | MIC (S. pyogenes APV00083): ≤ 0.06 µg/mL | MIC (C. difficile ATCC 700057): 0.25 µg/mL | MIC [1]: 0.03 µg/mL | MIC range [2]: ≤0.06 to 0.5 µg/mL | MIC50 ([2]; Staphylococcus aureus, read-out: MIC50): 0.12 µg/mL | MIC90 ([2]; Staphylococcus aureus, read-out: MIC90): 0.5 µg/mL | MIC50 [3]: 0.5 µg/mL | MIC90 [3]: 1 µg/mL | MIC [3]: 0.06 to 1 µg/mL | MIC [4]: 0.5 to 16 µg/mL | MIC50 [4]: 2 µg/mL | MIC90 [4]: 4 µg/mL | MIC range [5]: 0.25 to 1 µg/mL | MIC50 ([5]; Acinetobacter baumannii): 0.5 µg/mL | MIC90 ([5]; Acinetobacter baumannii): 1 µg/mL

Cl.O=c1oc2ccc(F)cc2c2[nH]c(CN[C@H]3CC[C@H](n4c(=O)ccc5ccc(F)cc54)CC3)cc12 [Compound 6, 8-fluoro-2-({[trans-4-(7-fluoro-2-oxoquinolin-1(2H)-yl)cyclohexyl]amino}methyl)[1]benzopyrano[4,3-b]pyrrol-4(1H)-one hydrochloride]
MIC (C. difficile ATCC 700057): 0.5 µg/mL | MIC50 [3]: 0.25 µg/mL | MIC90 [3]: 0.25 µg/mL | MIC [3]: 0.06 to 0.25 µg/mL | MIC [4]: 0.25 to 4 µg/mL | MIC50 [4]: 2 µg/mL | MIC90 [4]: 4 µg/mL
